From patent US4594190A, “Quaternary salts of dibenzo[1,4]diazepinones, pyrido-[1,4]benzodiazepinones, pyrido[1,5]benzodiazepinones with antiulcer, antisecretory, spasmolytic and antimusarinic activities” (priority 1983, dated 1986)

Columns and labels:
[1] = system: carbachole-induced salivation; assay: Carbachole salivation in the rat; type: in vivo, rat (male Sprague-Dawley); conditions: 62.5 mg/kg p.o., one hour before carbachole 1 mg/kg i.p.
Experimental: CARBACHOLE SALIVATION IN THE RAT
The method cited by R. Turner: "Parasympatholytic Agents" in R. Turner "Screening Methods in Pharmacology" pag. […] Academic Press. […] Male Sprague-Dawley rats, mean weight 150±5 g, fasting since 24 hours, were used.
The salivation was induced by the intraperitoneal administration of 1 mg/kg of carbachole. The products under exam were administered orally one hour before the cholinergic stimulus.

gastric acid secretion = assay: Gastric acid secretion in the pylorus ligated rat (antisecretory activity); type: in vivo, rat (male Sprague-Dawley); conditions: 4 hours
Experimental: GASTRIC ACID SECRETION IN THE PYLORUS LIGATED RAT
Male Sprague-Dawley rats weighing 150±5 g fasting since 48 hours were used. Pylorus ligation was performed for 4 hours. The products under examination were administered by the oral route immediately after the ligation.

in vivo = conditions: mouse, oral, Swiss mice, 14 days observation
Experimental: The acute toxicity was determined by administering by oral route the substances under exam to Swiss mice, average weight 20±2 g. The observation period was 14 days. 10 Animals were used for each assayed dose.

Row | Compound | Salivation by carbachol- protection % [1] [%] | % Antisecretory activity (gastric acid secretion; 6.25 mg/kg p.o.) [%] | % Antisecretory activity (gastric acid secretion; 12.5 mg/kg p.o.) [%] | % Antisecretory activity (gastric acid secretion; 25 mg/kg p.o.) [%] | LD50 at 336 h (in vivo) [mg/kg]
1 | C[N+]1(C)CC[N+](C)(CC(=O)N2c3ccccc3C(=O)Nc3cccnc32)CC1 [Compound 2, 11-[2-(4-Methylpiperazin-1-yl)acetyl]-5,11-dihydro-6H-pyrido[2,3-b][1,4]benzodiazepin-6-one N^1,4 bisiodomethylate] | 30 | 10.3 | 15.1 | 20.4 | > 500
2 | C[N+](C)(C)CC(=O)N1c2ccccc2C(=O)Nc2cccnc21 [Compound 3, 11-(2-Dimethylaminoacetyl)-5,11-dihydro-6H-pyrido-[2,3-b][1,4]-benzodiazepin-6-one iodomethylate] | 0 | 6.0 | 14.3 | 35.9 | < 500
3 | C[N+]1(CC(=O)N2c3ccccc3C(=O)Nc3cccnc32)CCCCC1 [Compound 4, 11-[2-(Piperidin-1-yl)acetyl]-5,11-dihydro-6H-pyrido[2,3-b][1,4]benzodiazepin-6-one iodomethylate] | 70 | 22.7 | 48.1 | 70.3 | > 500
4 | C[N+]1(CCC(=O)N2c3ccccc3C(=O)Nc3cccnc32)CCCCCC1 [Compound 13] | 30 | 19.2 | 47.5 | 69.6 | > 500
5 | CC(C)(C)C(=O)OC[N+]1(C)CCC(C(=O)N2c3ccccc3C(=O)Nc3cccnc32)CC1 (stereo not shown) [Compound 15] | 10 | 9.6 | 27.7 | 41.8 | > 500
